Results as given in PubChem BioAssay AID1963842 (Molecular Pharmacology Branch, DTP, NCI, 2024).

System: 677734-321-R-J1-PDC complex spheroid viability
Assay: Anticancer human tumor 677734-321-R-J1-PDC patient-derived soft tissue sarcoma cell line growth inhibition [POLQ]
Details: for IC50: curve of first compound; for viability, T/C: stronger effect = lower value
Summary of the method: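 Growth inhibition in 3D: complex spheroids (tumor PDC, HUVEC, MSC) treated with POLQ inhibitor combinations; where Cmax unknown, highest tested concentration 10 microM, except SN-38 at 1 microM.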
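Also: spheroids exposed to compounds for one week.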
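For viability, T/C in this document: 100% = vehicle DMSO treated spheroids.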

CC(=O)O[C@H]1C(=O)[C@@]2(C)[C@H]([C@H](OC(=O)c3ccccc3)[C@]3(O)C[C@H](OC(=O)[C@H](O)[C@@H](NC(=O)c4ccccc4)c4ccccc4)C(C)=C1C3(C)C)[C@]1(OC(C)=O)CO[C@@H]1C[C@@H]2O + Cc1cccc(N(C)C(=O)C2C(O)CCN2c2nc(C)cc(C(F)(F)F)c2C#N)c1
IC50 (second compound 0.0316 µM): < 9.49 nM
IC50 (second compound 0.1 µM): < 9.49 nM
IC50 (second compound 0.316 µM): < 9.49 nM
IC50 (second compound 1 µM): < 9.49 nM
IC50 (second compound 3.16 µM): < 9.49 nM
IC50 (second compound 10 µM): < 9.49 nM
viability, T/C (second compound 0.0316 µM, first compound 0.00949 µM): 21.8%
viability, T/C (second compound 0.0316 µM, first compound 0.03 µM): 14.4%
viability, T/C (second compound 0.0316 µM, first compound 0.0949 µM): 14.1%
viability, T/C (second compound 0.0316 µM, first compound 0.3 µM): 12.6%
viability, T/C (second compound 0.0316 µM, first compound 0.949 µM): 10.9%
viability, T/C (second compound 0.0316 µM, first compound 3 µM): 12.8%
viability, T/C (second compound 0.1 µM, first compound 0.00949 µM): 23.7%
viability, T/C (second compound 0.1 µM, first compound 0.03 µM): 16.1%
viability, T/C (second compound 0.1 µM, first compound 0.0949 µM): 13.6%
viability, T/C (second compound 0.1 µM, first compound 0.3 µM): 13.3%
viability, T/C (second compound 0.1 µM, first compound 0.949 µM): 13.5%
viability, T/C (second compound 0.1 µM, first compound 3 µM): 15.6%
viability, T/C (second compound 0.316 µM, first compound 0.00949 µM): 22.8%
viability, T/C (second compound 0.316 µM, first compound 0.03 µM): 18.9%
viability, T/C (second compound 0.316 µM, first compound 0.0949 µM): 12.4%
viability, T/C (second compound 0.316 µM, first compound 0.3 µM): 10.3%
viability, T/C (second compound 0.316 µM, first compound 0.949 µM): 12.4%
viability, T/C (second compound 0.316 µM, first compound 3 µM): 13.9%
viability, T/C (second compound 1 µM, first compound 0.00949 µM): 26%
viability, T/C (second compound 1 µM, first compound 0.03 µM): 23.1%
viability, T/C (second compound 1 µM, first compound 0.0949 µM): 14%
viability, T/C (second compound 1 µM, first compound 0.3 µM): 11.4%
viability, T/C (second compound 1 µM, first compound 0.949 µM): 9.6%
viability, T/C (second compound 1 µM, first compound 3 µM): 9.4%
viability, T/C (second compound 3.16 µM, first compound 0.00949 µM): 23.6%
viability, T/C (second compound 3.16 µM, first compound 0.03 µM): 13.4%
viability, T/C (second compound 3.16 µM, first compound 0.0949 µM): 12.2%
viability, T/C (second compound 3.16 µM, first compound 0.3 µM): 12.8%
viability, T/C (second compound 3.16 µM, first compound 0.949 µM): 12%
viability, T/C (second compound 3.16 µM, first compound 3 µM): 14.6%
viability, T/C (second compound 10 µM, first compound 0.00949 µM): 27.3%
viability, T/C (second compound 10 µM, first compound 0.03 µM): 12.4%
viability, T/C (second compound 10 µM, first compound 0.0949 µM): 12.2%
viability, T/C (second compound 10 µM, first compound 0.3 µM): 14.5%
viability, T/C (second compound 10 µM, first compound 0.949 µM): 11.3%
viability, T/C (second compound 10 µM, first compound 3 µM): 11.4%

CC[C@@]1(O)C(=O)OCc2c1cc1n(c2=O)Cc2cc3c(CN(C)C)c(O)ccc3nc2-1 + Cc1cccc(N(C)C(=O)C2C(O)CCN2c2nc(C)cc(C(F)(F)F)c2C#N)c1
IC50 (second compound 0.0316 µM): 26.2 nM
IC50 (second compound 0.1 µM): 26.2 nM
IC50 (second compound 0.316 µM): 23 nM
IC50 (second compound 1 µM): 27.5 nM
IC50 (second compound 3.16 µM): 24.3 nM
IC50 (second compound 10 µM): 25.3 nM
viability, T/C (second compound 0.0316 µM, first compound 0.000316 µM): 104%
viability, T/C (second compound 0.0316 µM, first compound 0.001 µM): 105%
viability, T/C (second compound 0.0316 µM, first compound 0.00316 µM): 102%
viability, T/C (second compound 0.0316 µM, first compound 0.01 µM): 102%
viability, T/C (second compound 0.0316 µM, first compound 0.0316 µM): 39.4%
viability, T/C (second compound 0.0316 µM, first compound 0.1 µM): 15.8%
viability, T/C (second compound 0.1 µM, first compound 0.000316 µM): 103%
viability, T/C (second compound 0.1 µM, first compound 0.001 µM): 113%
viability, T/C (second compound 0.1 µM, first compound 0.00316 µM): 108%
viability, T/C (second compound 0.1 µM, first compound 0.01 µM): 99.9%
viability, T/C (second compound 0.1 µM, first compound 0.0316 µM): 40.2%
viability, T/C (second compound 0.1 µM, first compound 0.1 µM): 21.1%
viability, T/C (second compound 0.316 µM, first compound 0.000316 µM): 112%
viability, T/C (second compound 0.316 µM, first compound 0.001 µM): 112%
viability, T/C (second compound 0.316 µM, first compound 0.00316 µM): 100%
viability, T/C (second compound 0.316 µM, first compound 0.01 µM): 91.3%
viability, T/C (second compound 0.316 µM, first compound 0.0316 µM): 34.1%
viability, T/C (second compound 0.316 µM, first compound 0.1 µM): 17.8%
viability, T/C (second compound 1 µM, first compound 0.000316 µM): 124%
viability, T/C (second compound 1 µM, first compound 0.001 µM): 96.4%
viability, T/C (second compound 1 µM, first compound 0.00316 µM): 105%
viability, T/C (second compound 1 µM, first compound 0.01 µM): 100%
viability, T/C (second compound 1 µM, first compound 0.0316 µM): 42.2%
viability, T/C (second compound 1 µM, first compound 0.1 µM): 17.6%
viability, T/C (second compound 3.16 µM, first compound 0.000316 µM): 120%
viability, T/C (second compound 3.16 µM, first compound 0.001 µM): 100%
viability, T/C (second compound 3.16 µM, first compound 0.00316 µM): 109%
viability, T/C (second compound 3.16 µM, first compound 0.01 µM): 94.1%
viability, T/C (second compound 3.16 µM, first compound 0.0316 µM): 37%
viability, T/C (second compound 3.16 µM, first compound 0.1 µM): 17.5%
viability, T/C (second compound 10 µM, first compound 0.000316 µM): 108%
viability, T/C (second compound 10 µM, first compound 0.001 µM): 100%
viability, T/C (second compound 10 µM, first compound 0.00316 µM): 98.2%
viability, T/C (second compound 10 µM, first compound 0.01 µM): 91.9%
viability, T/C (second compound 10 µM, first compound 0.0316 µM): 39.8%
viability, T/C (second compound 10 µM, first compound 0.1 µM): 23.2%
